Assay results taken from the CheMixHub viscosity set.

Assay: xn = mol fraction of the nth substance listed

C1COCCO1 + CC#N
viscosity [mPa·s], 101 kPa
Settings | x2 = 0.1926 | x2 = 0.3492 | x2 = 0.4791 | x2 = 0.5886 | x2 = 0.6822 | x2 = 0.763 | x2 = 0.8336 | x2 = 0.8957 | x2 = 0.9508
298.15 K | 0.9468 | 0.772 | 0.6349 | 0.5315 | 0.4573 | 0.4099 | 0.3679 | 0.3482 | 0.3389
308.15 K | 0.8244 | 0.6862 | 0.5802 | 0.503 | 0.4477 | 0.4079 | 0.3775 | 0.3531 | 0.334
318.15 K | 0.7189 | 0.5994 | 0.5014 | 0.4305 | 0.3854 | 0.3542 | 0.3354 | 0.3194 | 0.3076

C1COCCO1 + C1CCCCC1
viscosity [mPa·s], 101 kPa
Settings | 298.15 K | 303.15 K | 308.15 K | 313.15 K | 318.15 K
x1 = 0.1001 | – | 0.793 | – | – | –
x1 = 0.2073 | – | 0.783 | – | – | –
x1 = 0.3007 | – | 0.785 | – | – | –
x1 = 0.4018 | – | 0.787 | – | – | –
x1 = 0.5018 | – | 0.815 | – | – | –
x1 = 0.5983 | – | 0.841 | – | – | –
x1 = 0.6997 | – | 0.882 | – | – | –
x1 = 0.7992 | – | 0.934 | – | – | –
x1 = 0.8901 | – | 1 | – | – | –
x2 = 0.0864 | 1.083 | 1.009 | 0.936 | 0.869 | 0.808
x2 = 0.2096 | 0.992 | 0.917 | 0.851 | 0.792 | 0.738
x2 = 0.286 | 0.943 | 0.876 | 0.813 | 0.756 | 0.702
x2 = 0.391 | 0.887 | 0.82 | 0.763 | 0.709 | 0.661
x2 = 0.535 | 0.848 | 0.785 | 0.73 | 0.676 | 0.632
x2 = 0.6125 | 0.831 | 0.772 | 0.715 | 0.665 | 0.621
x2 = 0.685 | 0.821 | 0.766 | 0.711 | 0.66 | 0.617
x2 = 0.773 | 0.824 | 0.763 | 0.708 | 0.66 | 0.614
x2 = 0.8223 | 0.828 | 0.768 | 0.714 | 0.663 | 0.617
x2 = 0.9303 | 0.847 | 0.781 | 0.724 | 0.673 | 0.627

COc1ccccc1O + Cc1ccccc1N
303.15 K, 101 kPa
Settings | viscosity [mPa·s]
x2 = 0.1 | 4.73
x2 = 0.2 | 4.93
x2 = 0.3 | 5.2
x2 = 0.34 | 5.22
x2 = 0.36 | 5.19
x2 = 0.4 | 5.17
x2 = 0.5 | 5.12
x2 = 0.6 | 4.82
x2 = 0.7 | 4.38
x2 = 0.8 | 4
x2 = 0.9 | 3.58

C[N+](C)(C)CC(=O)[O-] + O=C1O[C@H]([C@@H](O)CO)C(O)=C1O
Settings | viscosity [mPa·s]
298.15 K, 101.33 kPa, x2 = 0.5 | 721.2

Brc1ccccc1 + COc1ccccc1
viscosity [mPa·s], 101 kPa
Settings | x2 = 0.0996 | x2 = 0.1949 | x2 = 0.2927 | x2 = 0.3925 | x2 = 0.4935 | x2 = 0.5913 | x2 = 0.6919 | x2 = 0.7952 | x2 = 0.8992
298.15 K | 1.084 | 1.079 | 1.072 | 1.059 | 1.052 | 1.042 | 1.032 | 1.024 | 1.013
303.15 K | 1.017 | 1.011 | 1.005 | 0.9905 | 0.9826 | 0.9704 | 0.9621 | 0.952 | 0.9439
308.15 K | 0.957 | 0.9479 | 0.9392 | 0.9236 | 0.9158 | 0.9055 | 0.8959 | 0.8857 | 0.8768
313.15 K | 0.8974 | 0.8903 | 0.8784 | 0.8659 | 0.8558 | 0.8442 | 0.8346 | 0.8247 | 0.8135

CC(C)[N+](=O)[O-] + c1ccccc1
293.15 K, 101.33 kPa
Settings | viscosity [mPa·s]
x1 = 0.0983 | 0.631
x1 = 0.2123 | 0.62
x1 = 0.2863 | 0.619
x1 = 0.4048 | 0.622
x1 = 0.5002 | 0.631
x1 = 0.5981 | 0.641
x1 = 0.7032 | 0.661
x1 = 0.7847 | 0.683
x1 = 0.908 | 0.731

C1=C[C@H]2[C@@H](C1)[C@H]1C=C[C@@H]2C1 + CCO
viscosity [mPa·s], 101.2 kPa
Settings | x1 = 0.1001 | x1 = 0.1997 | x1 = 0.2973 | x1 = 0.4003 | x1 = 0.501 | x1 = 0.6023 | x1 = 0.699 | x1 = 0.8013 | x1 = 0.9002
293.15 K | 1.493 | 1.788 | 2.076 | 2.381 | 2.68 | 3.001 | 3.332 | 3.701 | 4.073
303.15 K | 1.232 | 1.449 | 1.657 | 1.879 | 2.098 | 2.339 | 2.595 | 2.879 | 3.161
313.15 K | 1.038 | 1.209 | 1.369 | 1.541 | 1.718 | 1.911 | 2.111 | 2.345 | 2.579

CCCCn1cc[n+](C)c1.O=S(=O)([N-]S(=O)(=O)C(F)(F)F)C(F)(F)F + CCCCn1cc[n+](C)c1.F[B-](F)(F)F
Settings | viscosity [mPa·s]
323.15 K, 100 kPa, x1 = 0.751 | 23.85

O=C1CCCO1 + CC#N
Settings | viscosity [mPa·s]
293.15 K, 101 kPa, x2 = 0.1054 | 1.604
293.15 K, 101 kPa, x2 = 0.1934 | 1.392
293.15 K, 101 kPa, x2 = 0.3007 | 1.172
293.15 K, 101 kPa, x2 = 0.4029 | 0.998
293.15 K, 101 kPa, x2 = 0.5036 | 0.849
293.15 K, 101 kPa, x2 = 0.6012 | 0.732
293.15 K, 101 kPa, x2 = 0.702 | 0.608
293.15 K, 101 kPa, x2 = 0.8008 | 0.518
293.15 K, 101 kPa, x2 = 0.8993 | 0.433
298.15 K, 101 kPa, x2 = 0.1054 | 1.484
298.15 K, 101 kPa, x2 = 0.1934 | 1.292
298.15 K, 101 kPa, x2 = 0.3007 | 1.092
298.15 K, 101 kPa, x2 = 0.4029 | 0.934
298.15 K, 101 kPa, x2 = 0.5036 | 0.8
298.15 K, 101 kPa, x2 = 0.6012 | 0.691
298.15 K, 101 kPa, x2 = 0.702 | 0.576
298.15 K, 101 kPa, x2 = 0.8008 | 0.495
298.15 K, 101 kPa, x2 = 0.8993 | 0.414
298.15 K, 101.33 kPa, x2 = 0.0503 | 1.591
298.15 K, 101.33 kPa, x2 = 0.0938 | 1.471
298.15 K, 101.33 kPa, x2 = 0.1387 | 1.375
298.15 K, 101.33 kPa, x2 = 0.2001 | 1.253
298.15 K, 101.33 kPa, x2 = 0.249 | 1.164
298.15 K, 101.33 kPa, x2 = 0.3005 | 1.074
298.15 K, 101.33 kPa, x2 = 0.3969 | 0.925
298.15 K, 101.33 kPa, x2 = 0.4459 | 0.86
298.15 K, 101.33 kPa, x2 = 0.4998 | 0.79
298.15 K, 101.33 kPa, x2 = 0.5515 | 0.728
298.15 K, 101.33 kPa, x2 = 0.5979 | 0.676
298.15 K, 101.33 kPa, x2 = 0.7014 | 0.571
298.15 K, 101.33 kPa, x2 = 0.7522 | 0.525
298.15 K, 101.33 kPa, x2 = 0.8006 | 0.485
298.15 K, 101.33 kPa, x2 = 0.8359 | 0.456
298.15 K, 101.33 kPa, x2 = 0.8994 | 0.409
298.15 K, 101.33 kPa, x2 = 0.9532 | 0.365
303.15 K, 101 kPa, x2 = 0.1054 | 1.378
303.15 K, 101 kPa, x2 = 0.1934 | 1.204
303.15 K, 101 kPa, x2 = 0.3007 | 1.021
303.15 K, 101 kPa, x2 = 0.4029 | 0.877
303.15 K, 101 kPa, x2 = 0.5036 | 0.756
303.15 K, 101 kPa, x2 = 0.6012 | 0.655
303.15 K, 101 kPa, x2 = 0.702 | 0.547
303.15 K, 101 kPa, x2 = 0.8008 | 0.473
303.15 K, 101 kPa, x2 = 0.8993 | 0.395
308.15 K, 101 kPa, x2 = 0.1054 | 1.284
308.15 K, 101 kPa, x2 = 0.1934 | 1.126
308.15 K, 101 kPa, x2 = 0.3007 | 0.958
308.15 K, 101 kPa, x2 = 0.4029 | 0.827
308.15 K, 101 kPa, x2 = 0.5036 | 0.716
308.15 K, 101 kPa, x2 = 0.6012 | 0.621
308.15 K, 101 kPa, x2 = 0.702 | 0.52
308.15 K, 101 kPa, x2 = 0.8008 | 0.452
308.15 K, 101 kPa, x2 = 0.8993 | 0.378
313.15 K, 101 kPa, x2 = 0.1054 | 1.201
313.15 K, 101 kPa, x2 = 0.1934 | 1.055
313.15 K, 101 kPa, x2 = 0.3007 | 0.902
313.15 K, 101 kPa, x2 = 0.4029 | 0.781
313.15 K, 101 kPa, x2 = 0.5036 | 0.68
313.15 K, 101 kPa, x2 = 0.6012 | 0.591
313.15 K, 101 kPa, x2 = 0.702 | 0.496
313.15 K, 101 kPa, x2 = 0.8008 | 0.431
313.15 K, 101 kPa, x2 = 0.8993 | 0.363
318.15 K, 101 kPa, x2 = 0.1054 | 1.125
318.15 K, 101 kPa, x2 = 0.1934 | 0.991
318.15 K, 101 kPa, x2 = 0.3007 | 0.85
318.15 K, 101 kPa, x2 = 0.4029 | 0.74
318.15 K, 101 kPa, x2 = 0.5036 | 0.647
318.15 K, 101 kPa, x2 = 0.6012 | 0.563
318.15 K, 101 kPa, x2 = 0.702 | 0.473
318.15 K, 101 kPa, x2 = 0.8008 | 0.413
318.15 K, 101 kPa, x2 = 0.8993 | 0.344
323.15 K, 101 kPa, x2 = 0.1054 | 1.058
323.15 K, 101 kPa, x2 = 0.1934 | 0.934
323.15 K, 101 kPa, x2 = 0.3007 | 0.803
323.15 K, 101 kPa, x2 = 0.4029 | 0.702
323.15 K, 101 kPa, x2 = 0.5036 | 0.617
323.15 K, 101 kPa, x2 = 0.6012 | 0.538
323.15 K, 101 kPa, x2 = 0.702 | 0.452
323.15 K, 101 kPa, x2 = 0.8008 | 0.396
323.15 K, 101 kPa, x2 = 0.8993 | 0.33
